{"source": "paper PMC10799935", "about": "“Discovery of a peripheral 5HT2A antagonist as a clinical candidate for metabolic dysfunction-associated steatohepatitis” (Nature Communications, 2024)", "key": {"[1]": {"system": "HFD-fed C57BL/6J mice", "experiment": "DIO mice: intraperitoneal glucose tolerance test (IPGTT)", "format": "in vivo, mouse", "set-up": "Mean Diff. (Vehicle vs. 11c), GTT blood glucose / Mean 2 (11c group), GTT blood glucose: unit not given here", "details": "for Blood Glucose Level 0 min / Blood Glucose Level 15 min / Blood Glucose Level 30 min / Blood Glucose Level 60 min / Blood Glucose Level 90 min / Blood Glucose Level 120 min / Blood Glucose Level AUC: GTT, DIO mice, PO", "method": "For the glucose tolerance test, overnight fasted mice were intraperitoneally injected with 2 g/kg D-glucose (Sigma-Aldrich). Glucose concentrations were measured using a Gluco DR. TOP glucometer (Allmedicus). The AUC (area under the curve) during the GTT was calculated using GraphPad Prism 8.0 software (La Jolla, CA, USA) by the trapezoidal method."}, "[2]": {"molecular_target": "T1, 5HT1A (h) (Homo sapiens, UniProt P08908)", "T1 construct": "host or cells: BA/F3 cells", "T1 sequence (P08908 whole entry)": "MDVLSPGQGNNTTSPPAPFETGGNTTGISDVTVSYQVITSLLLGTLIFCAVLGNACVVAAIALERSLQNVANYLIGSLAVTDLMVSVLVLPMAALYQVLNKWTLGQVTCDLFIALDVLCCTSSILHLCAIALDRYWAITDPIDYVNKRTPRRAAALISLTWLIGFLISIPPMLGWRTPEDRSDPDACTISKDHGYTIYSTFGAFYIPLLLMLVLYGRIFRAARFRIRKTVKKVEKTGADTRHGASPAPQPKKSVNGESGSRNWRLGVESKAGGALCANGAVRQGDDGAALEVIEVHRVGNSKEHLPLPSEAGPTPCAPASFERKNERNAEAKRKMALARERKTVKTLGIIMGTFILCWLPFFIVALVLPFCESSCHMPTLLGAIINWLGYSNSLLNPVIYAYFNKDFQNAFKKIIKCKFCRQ", "experiment": "5HT subtype antagonism assay (Eurofins Cerep): 5HT1A", "format": "cell-based", "details": "concentration not given"}, "[3]": {"system": "HFD-fed C57BL/6J mice", "experiment": "DIO mice: fasting glucose levels", "format": "in vivo, mouse", "details": "PO, in mg/dL (unit assumed)"}, "[4]": {"system": "CDAHFD-fed C57BL/6 J mice", "experiment": "CDAHFD mice: food intake", "format": "in vivo, mouse", "details": "amongst CDAHFD-fed groups, 12 weeks", "text": "C57BL/6 J male mice were purchased from the Japan SLC. Inc (Hamamatsu, Japan). Mice (5 weeks old) were fed Teklad Certitied Irradiated Global 18% protein rodent diet purchased from Dooyeol Biotech Co. Ltd (Seoul, South Korea) during the acclimation period. The liver fibrosis/inflammation-induced groups were CDAHFD-fed (A06071302, Research diet). […] All animal experiments complied with the relevant ethical regulations.\nSupplementary Figure 4. Food intake. Food intake of vehicle and CDAHFD-fed mice, two-way\nANOVA with the Holm-Sidak post hoc test. The data are presented as mean ± SD (n = 2 cages per\n(1 picture or pasted object on this page, not shown here)"}, "[5]": {"details": "5mpk, individual animals, 5 mg/kg"}, "[6]": {"details": "10mpk, individual animals, 10 mg/kg"}}, "note": "Where “and” joins values, the source holds several entries; their conditions need not be identical. Identical values can stand only once.", "data": [{"smiles": "Cc1nc2n(c(=O)c1CCN1CCC(=C3c4ccc(Cl)cc4CCc4cccnc43)CC1)CCCC2O", "note": "(centres unmarked) [Compound 11c]", "values": [{"measurement": "Mean 2 (11c group), GTT blood glucose", "setting": "[1]; 10mpk, 120 min, test details, mixed-effects model", "value": 247.7}, {"measurement": "Blood Glucose Level 0 min", "setting": "[1]; 5mpk, group mean", "value": 206.4, "unit": "mg/dL"}, {"measurement": "Blood Glucose Level 0 min", "setting": "[1]; [5]", "value": "241.0 mg/dL and 220.5 mg/dL and 182.0 mg/dL and 211.0 mg/dL and 157.0 mg/dL and 205.0 mg/dL and 228.0 mg/dL"}, {"measurement": "Blood Glucose Level 15 min", "setting": "[1]; 5mpk, group mean", "value": 542.4, "unit": "mg/dL"}, {"measurement": "Blood Glucose Level 15 min", "setting": "[1]; [5]", "value": "629.0 mg/dL and 541.0 mg/dL and 509.0 mg/dL and 553.5 mg/dL and 596.5 mg/dL and 427.0 mg/dL"}, {"measurement": "Blood Glucose Level 30 min", "setting": "[1]; 5mpk, group mean", "value": 575.0, "unit": "mg/dL"}, {"measurement": "Blood Glucose Level 30 min", "setting": "[1]; [5]", "value": "662.5 mg/dL and 628.5 mg/dL and 650.5 mg/dL and 617.5 mg/dL and 539.5 mg/dL and 470.5 mg/dL and 456.0 mg/dL"}, {"measurement": "Blood Glucose Level 60 min", "setting": "[1]; 5mpk, group mean", "value": 473.2, "unit": "mg/dL"}, {"measurement": "Blood Glucose Level 60 min", "setting": "[1]; [5]", "value": "526.0 mg/dL and 500.0 mg/dL and 631.5 mg/dL and 438.0 mg/dL and 309.5 mg/dL and 481.5 mg/dL and 426.0 mg/dL"}, {"measurement": "Blood Glucose Level 90 min", "setting": "[1]; 5mpk, group mean", "value": 359.1, "unit": "mg/dL"}, {"measurement": "Blood Glucose Level 90 min", "setting": "[1]; [5]", "value": "412.0 mg/dL and 393.0 mg/dL and 445.5 mg/dL and 295.0 mg/dL and 202.0 mg/dL and 352.0 mg/dL and 414.5 mg/dL"}, {"measurement": "Blood Glucose Level 120 min", "setting": "[1]; 5mpk, 120 min, group mean", "value": 270.4, "unit": "mg/dL"}, {"measurement": "Blood Glucose Level 120 min", "setting": "[1]; 5mpk, 120 min, individual animals, 5 mg/kg", "value": "297.0 mg/dL and 295.0 mg/dL and 358.5 mg/dL and 219.0 mg/dL and 181.0 mg/dL and 242.5 mg/dL and 299.5 mg/dL"}, {"measurement": "Blood Glucose Level AUC", "setting": "[1]; 5mpk, group mean", "value": 26885.0, "unit": "mg·min/dL"}, {"measurement": "Blood Glucose Level 0 min", "setting": "[1]; 10mpk, group mean", "value": 183.9, "unit": "mg/dL"}, {"measurement": "Blood Glucose Level 0 min", "setting": "[1]; [6]", "value": "113.5 mg/dL and 200.5 mg/dL and 204.0 mg/dL and 222.5 mg/dL and 179.0 mg/dL and 184.0 mg/dL"}, {"measurement": "Blood Glucose Level 15 min", "setting": "[1]; 10mpk, group mean", "value": 527.5, "unit": "mg/dL"}, {"measurement": "Blood Glucose Level 15 min", "setting": "[1]; [6]", "value": "483.5 mg/dL and 423.0 mg/dL and 498.0 mg/dL and 646.0 mg/dL and 555.0 mg/dL and 559.5 mg/dL"}, {"measurement": "Blood Glucose Level 30 min", "setting": "[1]; 10mpk, group mean", "value": 591.4, "unit": "mg/dL"}, {"measurement": "Blood Glucose Level 30 min", "setting": "[1]; [6]", "value": "550.5 mg/dL and 531.0 mg/dL and 653.0 mg/dL and 657.0 mg/dL and 577.0 mg/dL and 580.0 mg/dL"}, {"measurement": "Blood Glucose Level 60 min", "setting": "[1]; 10mpk, group mean", "value": 486.8, "unit": "mg/dL"}, {"measurement": "Blood Glucose Level 60 min", "setting": "[1]; [6]", "value": "370.0 mg/dL and 458.5 mg/dL and 558.0 mg/dL and 603.0 mg/dL and 357.5 mg/dL and 574.0 mg/dL"}, {"measurement": "Blood Glucose Level 90 min", "setting": "[1]; 10mpk, group mean", "value": 365.9, "unit": "mg/dL"}, {"measurement": "Blood Glucose Level 90 min", "setting": "[1]; [6]", "value": "283.5 mg/dL and 422.0 mg/dL and 442.0 mg/dL and 440.5 mg/dL and 227.0 mg/dL and 380.5 mg/dL"}, {"measurement": "Blood Glucose Level 120 min", "setting": "[1]; 10mpk, 120 min, group mean", "value": 247.7, "unit": "mg/dL"}, {"measurement": "Blood Glucose Level 120 min", "setting": "[1]; 10mpk, 120 min, individual animals, 10 mg/kg", "value": "170.0 mg/dL and 260.5 mg/dL and 387.0 mg/dL and 315.5 mg/dL and 148.5 mg/dL and 204.5 mg/dL"}, {"measurement": "Blood Glucose Level AUC", "setting": "[1]; 10mpk, group mean", "value": 28219.0, "unit": "mg·min/dL"}, {"measurement": "Selectivity 1 A: % inhibition", "setting": "[2]", "value": 9, "unit": "%"}, {"measurement": "6hr Fasting Glucose Levels, Average 7W", "setting": "[3]; 5mpk, group mean", "value": 158.2}, {"measurement": "6hr Fasting Glucose Levels, Average 7W", "setting": "[3]; [5]", "value": "172.5 and 172.0 and 150.5 and 154.0 and 119.5 and 188.0 and 151.0"}, {"measurement": "6hr Fasting Glucose Levels, Blood Glucose Level", "setting": "[3]; 5mpk, 2021.03.29, duplicate readings of individual animals, 5 mg/kg", "value": "173.0 and 172.0 and 155.0 and 189.0 and 149.0 and 152.0 and 158.0 and 150.0 and 127.0 and 112.0 and 181.0 and 195.0 and 140.0 and 162.0"}, {"measurement": "6hr Fasting Glucose Levels, Average 7W", "setting": "[3]; 10mpk, group mean", "value": 134.9}, {"measurement": "6hr Fasting Glucose Levels, Average 7W", "setting": "[3]; [6]", "value": "116.0 and 126.0 and 147.5 and 160.5 and 170.0 and 89.5"}, {"measurement": "6hr Fasting Glucose Levels, Blood Glucose Level", "setting": "[3]; 10mpk, 2021.03.29, duplicate readings of individual animals, 10 mg/kg", "value": "117.0 and 115.0 and 121.0 and 131.0 and 148.0 and 147.0 and 163.0 and 158.0 and 171.0 and 169.0 and 89.0 and 90.0"}, {"measurement": "food intake", "setting": "[4]", "value": "no significant difference"}]}]}
